The values that follow are results of earlier work, collected in paper PMC3991022, “Comparison of Functional Protein Transduction Domains Using the NEMO Binding Domain Peptide” (Pharmaceuticals, 2010).

This series deals with mouse model of collagen induced arthritis. Further details: method as in PMID 15156202. The note with it: injection of NBD peptide.

With TALDWSWLQTE [NBD peptide], the amelioration of arthritis result is reported as “significantly ameliorated the arthritis”.
